This assay addresses Sfp-PPTase (Bacillus subtilis, UniProt P39135). Put plainly: Rhodamine/BHQ-2 dark quench assay. Type of assay: biochemical.

The values that follow come from publication PMC2992954 (Molecular bioSystems, 2009).

The structures appear in SMILES notation. Structures can show the parent of a compound that is named as a salt.

Sequence of Sfp-PPTase (P39135 whole entry): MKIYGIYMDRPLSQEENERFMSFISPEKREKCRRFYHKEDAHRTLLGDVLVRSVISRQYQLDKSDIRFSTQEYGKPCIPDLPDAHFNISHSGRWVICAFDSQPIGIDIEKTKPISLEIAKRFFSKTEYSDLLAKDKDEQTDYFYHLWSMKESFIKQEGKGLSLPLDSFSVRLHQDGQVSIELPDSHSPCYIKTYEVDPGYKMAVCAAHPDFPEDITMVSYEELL

Consider `Nc1ncnc2c1ncn2[C@@H]1O[C@H](COP(=O)(O)O)[C@@H](OP(=O)(O)O)[C@H]1O` [PAP 3, adenosine 3′, 5′-diphosphate sodium salt], for which the IC50 (in general, the concentration at which inhibition is half-maximal) is 14.6 µM.
